The structures appear in SMILES notation.

Data set [1] deals with T1, NTR extracted from Escherichia coli (Escherichia coli, UniProt P38489).
T1 construct: host or cells: Escherichia coli
Nature of the data set: In vitro release evaluation: incubation with NTR and NADH, HPLC of derivative and released 5′-DFUR. It counts as biochemical. The procedure:
(§1) NTR levels are reportedly much higher in hypoxic tumors than in normal tissues. To investigate the mechanism of activation of the derivatives and the amount of 5′-DFUR released, we treated the target compounds with NTR extracted from Escherichia coli to determine whether they provided the desired active agent as expected. The test compounds (50 µM, 1% dimethyl sulfoxide [DMSO]) were dissolved in PBS buffer at pH 7.4 and incubated with NTR (50 µg/mL) and NADH (2 mM) at 37 °C, and the concentrations of the derivatives and 5′-DFUR during the bioreduction were detected by high-performance liquid chromatography (HPLC). The designed target compounds 1c–3c could be metabolized to form 5′-DFUR in the presence of NTR, while the nitro-free compounds 4c–6c could not be metabolized to form 5′-DFUR. […] The metabolic rate of compound 2c was the highest, with a half-life of 0.6 h. It was completely degraded after 4 h, and 69.6% of 5′-DFUR was released. […] During the experiment, other metabolites, such as hydroxylamine derivatives and amino derivatives generated by reducing the nitro group were also detected. […] Compounds 4c, 5c and 6c, without nitro groups, remained well-stabilized under NTR conditions, with concentrations > 90% after 12 h.
(§2) The target compounds NTR and NADH were dissolved in 10 mM PBS (pH 7.4; 1% DMSO). The final concentrations of the target compounds NTR and NADH in the mixtures were 50 μM, 50 μg/mL, and 2 mM, respectively. The mixture were incubated at 37 °C. The sample (100 μL) was collected and quenched by 100 µL of cold methanol. The mixture was vortexed for 5 min and centrifuged at 10,000× g for 10 min. The supernatant was transferred to a vial for HPLC analysis at 0.25, 0.5, 1, 2, 4, 8, and 12 h.

The target of another data set is T2, NTR (Escherichia coli, UniProt P38489).
T2 construct: host or cells: Escherichia coli
T2 sequence (P38489 whole entry): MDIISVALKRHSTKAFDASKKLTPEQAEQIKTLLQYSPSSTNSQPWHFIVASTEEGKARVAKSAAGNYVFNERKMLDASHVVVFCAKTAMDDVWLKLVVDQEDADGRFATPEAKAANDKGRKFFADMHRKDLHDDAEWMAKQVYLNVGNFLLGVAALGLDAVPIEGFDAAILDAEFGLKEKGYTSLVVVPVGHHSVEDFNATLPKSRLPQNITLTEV
The data set is described as above. The settings on record: Escherichia coli; 50 µM compound, NTR 50 µg/mL, NADH 2 mM, PBS pH 7.4, 37 °C; read-out: half-life in the presence of NTR (converted). It counts as biochemical. The procedure: as §1, §2

T1 sequence (P38489 whole entry): as above

On to `C[C@H]1O[C@@H](n2cc(F)c(=O)n(Cc3ccc([N+](=O)[O-])o3)c2=O)[C@H](O)[C@@H]1O` [Compound 2c], for which the “time after which compound was completely degraded by NTR” value in data set [1] (50 µM compound, NTR 50 µg/mL, NADH 2 mM, PBS pH 7.4, 37 °C) came to 4 h. Besides, the “5′-DFUR released” value in data set [1] (50 µM compound, NTR 50 µg/mL, NADH 2 mM, PBS pH 7.4, 37 °C, at complete degradation) came out at 69.6%. Also, in data set [1] (versus 1c and 3c, Figure 4d), the “amount of 5′-DFUR released (AUC0–12h of relative amount), comparison in words” value is reported as “significantly higher”. At NTR, the half-life – broadly, the time needed for the level to fall by half in the phase considered – at 50 µM was 36 min.

(Values after paper PMC11547703, “Design, Synthesis, and Evaluation of Doxifluridine Derivatives as Nitroreductase-Responsive Anticancer Prodrugs” (Molecules, 2024).)
